Experiments:
red eye condition = experiment: Red eye study, brimonidine vs VISINE Original, cumulative red scores (Example 4); format: in vivo, human; conditions: three week scores, brimonidine at […]
Method: The patients were assigned “cumulative red scores” , prior to each administration (as baseline) and then 10 min after each dose, by dividing the bulbar conjunctiva into six sectors, each scored with a grade 1-3 score and the total cumulative score.

rebound hyperemia = experiment: Reversal of pre-induced rebound hyperemia (FIGS. 5A-C); format: in vivo, human; conditions: right eye, brimonidine at […] after VISINE Original
Source text: FIG. 5A is a baseline visual appearance of two eyes of a patient with an ocular condition.

chronic red eyes = experiment: Chronic red eyes, eld brimonidine vs Naphcon-A, patient satisfaction assessment (Example 5); format: in vivo, human; conditions: brimonidine at […], drops twice a day for three to five weeks, seven patients
Method: The treatment was through drops twice a day for three to five weeks. At the end, patient satisfaction assessment was conducted.

[1] = system: eyes of a patient with an ocular condition; conditions: brimonidine 0.01-[…] (left eye) compared with tetrahydrozoline 0.05%, oxymetazoline […], naphazoline […] (right eye); baseline redness 4/4
Source text: In an average clinical situation, baseline redness is at 1-1.5/4.

[2] = system: postoperative hyperemia and conjunctival hemorrhage; experiment: Lasik prophylaxis (Example 2); conditions: brimonidine 0.02%
[3] = system: vasoconstriction, rebound hyperemia, intraocular pressure, corneal endothelial cell pump; conditions: FIG. 2

Brc1c(N=C2NCCN2)ccc2nccnc12.O=C(O)C(O)C(O)C(=O)O [brimonidine, 5-bromo-6-(2-imidazolidinylideneamino)quinoxaline L-tartrate]
average redness count after administration (went down to) (red eye condition): 1.6
reversal of induced rebound hyperemia (rebound hyperemia): reversing the VISINE Original® induced rebound hyperemia
patient-reported redness (chronic red eyes): All patients reported reduced redness
scleral whitening brightening effects [1]: significant scleral whitening brightening effects
cosmetic appearance from day 1 vs. no vasoconstrictor and vs. Naphcon-A [2]: much improved
eye appearance after Lasik ([2]; group expanded to over 500 eyes): white quiet eye is noted in most patients
concentration at which intraocular pressure reduction and corneal endothelial cell pump inhibition are just at their maximum [3]: about 0.09%
concentration below which intraocular pressure reduction and endothelial cell pump inhibition drop off exponentially ([3]; vasoconstrictive effect remains largely unchanged): below 0.08%

Source: US8293742B2, “Preferential vasoconstriction compositions and methods of use” (Alpha Synergy Development, Inc., priority 2008, dated 2012)
